Results as given in patent US20250134874A1, “PHARMACEUTICAL FORMULATIONS COMPRISING 3-({[(4R)-7-{METHYL[4-(PROPAN-2-YL)PHENYL]AMINO}-3,4-DIHYDRO-2H-1-BENZOPYRAN-4-YL]METHYL}AMINO)PYRIDINE-4-CARBOXYLIC ACID” (TACHYON THERAPEUTICS, INC., priority 2021, published 2025).

System: 301 cancer cell lines from different tumor types (OncoPanel; HD Biosciences)
Test: 2D cell viability inhibition assay (CellTiter-Glo) in cancer cell line panel
Assay type: cell-based
Design: key to AUC: AUC as fraction of the no-inhibition area (dose range × 0–100 % of control)
Conditions: for Emax: in %
Procedure: In a larger screening study, compound 1 was evaluated across a broad cancer cell line panel (OncoPanel; HD Biosciences) composed of 301 cancer cell lines from different tumor types.
2D cell viability inhibition assays were performed in multiwell plates seeded with cells from the panel. After seeding, the plates were cultured overnight in a humidified incubator at 37° C. to promote adherence. Assays were initiated in individual wells by adding either DMSO as a vehicle control, growth media as a blank, or serially diluted compound 1 (10 μM to 0.0005 μM with 1:3 serial dilution). Cultures were incubated for 168 hours after which the number of viable cells in each test well was assessed using the CellTiter-Glo® Luminescent Cell Viability Assay. Luminescence readouts were performed using an EnVision® Multilabel Reader and the compound 1 readouts were normalized to the DMSO control readouts, expressed as a percent of the control. Outliers were flagged out by visual inspection. Percent of control was plotted against the corresponding compound 1 concentration and the absolute IC50 value was determined using four-parameter logistic non-linear regression as the concentration where inhibition was 50% of the control. For maximum inhibition <50%, the absolute IC50 was reported as >10. In addition to EC50 and IC50, AUC was determined and was normalized to the area corresponding to theoretical no-inhibition (the rectangular area defined by the compound dose range and 0 to 100 in y). Emax was recorded as the minimum in y with the compound dose range. For those cell lines where Emax>40, EC50 was manually set to 10 μM. A hierarchical clustering algorithm based on Euclidean distance between the standardized input values and “Ward.D” method as implemented in R hclust function was used to visualize the compound 1 cellular potency data. The sensitive/moderate/resistant calls for each cell line was determined by visually inspecting the resulting clustering dendrogram. All the analyses were done in R Core Team.

[1] = Homo sapiens, TE-5, TE5 cell line
[2] = Homo sapiens, TE-6, TE6 cell line
[3] = Homo sapiens, TE-9, TE9 cell line
[4] = Homo sapiens, TE-10, TE10 cell line
[5] = Homo sapiens, TE-11, TE11 cell line
[6] = Homo sapiens, TF-1, TF1 cell line
[7] = Homo sapiens, THP-1, THP1 cell line
[8] = Homo sapiens, TOV112D, TOV112D cell line
[9] = Homo sapiens, TT, T.T cell line
[10] = Homo sapiens, U2OS, U2OS cell line
[11] = Homo sapiens, U-87 MG, U87MG cell line
[12] = Homo sapiens, U-937, U937 cell line
[13] = Homo sapiens, UMUC3, UMUC3 cell line
[14] = Homo sapiens, WM 266-4, WM2664 cell line
[15] = Homo sapiens, WM-115, WM115 cell line
[16] = Homo sapiens, WSUDLCL2, WSUDLCL2 cell line

CC(C)c1ccc(N(C)c2ccc3c(c2)OCC[C@H]3CNc2cnccc2C(=O)O)cc1 [Compound 1, 3-({[(4R)-7-{methyl[4-(propan-2-yl)phenyl]amino}-3,4-dihydro-2H-1-benzopyran-4-yl]methyl}amino)pyridine-4-carboxylic acid]
IC50 (Homo sapiens, TALL-1, TALL1 cell line): 1.8 nM
EC50 [1]: 6.64 nM
IC50 [1]: 8.47 nM
EC50 [2]: 4.83 nM
IC50 [2]: 6.68 nM
EC50 [3]: 3.75 nM
IC50 [3]: 6.89 nM
EC50 [4]: 9.3 nM
IC50 [4]: 16.3 nM
EC50 [5]: 3.85 nM
IC50 [5]: 4.28 nM
IC50 (Homo sapiens, TE-15, 168 h, TE15, oesophagus, squamous cell carcinoma, 168 hours): > 10000 nM
EC50 [6]: 1.58 nM
IC50 [6]: 2.59 nM
EC50 [7]: 4.92 nM
IC50 [7]: 6.15 nM
EC50 [8]: 4.26 nM
IC50 [8]: 6.23 nM
EC50 [9]: 4.37 nM
IC50 [9]: 6.75 nM
EC50 [10]: 7.71 nM
IC50 [10]: 9.01 nM
EC50 [11]: ≥ 10000 nM
IC50 [11]: 14.7 nM
EC50 [12]: 2.73 nM
IC50 [12]: 2.55 nM
IC50 (Homo sapiens, UACC-812, 168 h, UACC812, breast, ductal carcinoma, 168 hours): > 10000 nM
EC50 [13]: 21.9 nM
IC50 [13]: 39.5 nM
IC50 (Homo sapiens, VCaP, 168 h, prostate, adenocarcinoma): > 10000 nM
EC50 [14]: ≥ 10000 nM
IC50 [14]: 27.5 nM
EC50 [15]: 2.5 nM
IC50 [15]: 478 nM
EC50 [16]: 4.21 nM
IC50 [16]: 5.67 nM
AUC (J82 cell line): 0.6749
AUC (JEKO1 cell line): 0.1172
AUC (JIMT1 cell line): 0.5519
AUC (JURKAT cell line): 0.1171
Emax (JURKAT cell line): 0.212
AUC (K562 cell line): 0.275
AUC (KALS1 cell line): 0.6559
AUC (KARPAS422 cell line): 0.329
Emax (KARPAS422 cell line): 8.084
AUC (KASUMI1, haematopoietic and lymphoid tissue, acute myeloid leukaemia, 168 hours): 0.8823
AUC (KATOIII cell line): 0.49
AUC (KG1, haematopoietic and lymphoid tissue, acute myeloid leukaemia, 168 hours): 0.9592
AUC (KM12 cell line): 0.3482
Emax (KM12 cell line): 12.24
AUC (KMS11 cell line): 0.3918
Emax (KMS11 cell line): 9.983
AUC (KNS62 cell line): 0.4761
Emax (KNS62 cell line): 18.84
AUC (KNS81 cell line): 0.6309
IC50 (KNS81 cell line): > 10000 nM
AUC (KU1919 cell line): 0.3956
Emax (KU1919 cell line): 14.57
AUC (KURAMOCHI, ovary, undifferentiated carcinoma, 168 hours): 0.8742
AUC (KYSE30 cell line): 0.4434
Emax (KYSE30 cell line): 38.59
AUC (KYSE70, oesophagus, squamous cell carcinoma, 168 hours): 0.6942
AUC (KYSE150 cell line): 0.3052
AUC (KYSE270 cell line): 0.3062
AUC (KYSE410 cell line): 0.4156
Emax (KYSE410 cell line): 21.4639
AUC (KYSE510 cell line): 0.1998
AUC (LNCAP cell line): 0.3974
AUC (LOUCY cell line): 0.188
EC50 (LOUCY cell line): 2.47 nM
IC50 (LOUCY cell line): 2.47 nM
AUC (LOVO cell line): 0.6362
AUC (LS411N cell line): 0.3851
Emax (LS411N cell line): 6.415
AUC (LU65 cell line): 0.4091
Emax (LU65 cell line): 12
AUC (LU99, lung, large cell carcinoma, 168 hours): 0.79
AUC (LUDLU1 cell line): 0.5307
EC50 (LUDLU-1, LUDLU1 cell line): 12.6 nM
IC50 (LUDLU-1, LUDLU1 cell line): 25.8 nM
AUC (MALME3M, skin, NS, 168 hours): 0.9867
AUC (MC116 cell line): 0.2527
AUC (MCF7 cell line): 0.6592
AUC (MDAMB157, breast, ductal carcinoma, 168 hours): 0.8362
AUC (MDAMB175VII, breast, ductal carcinoma, 168 hours): 0.7385
AUC (MDAMB231, breast, NS, 168 hours): 0.7262
AUC (MDAMB361, breast, NS, 168 hours): 1.117
AUC (MDAMB415, breast, NS, 168 hours): 0.9413
AUC (MDAMB436, breast, NS, 168 hours): 0.8438
AUC (MDAMB453 cell line): 0.4524
Emax (MDAMB453 cell line): 21.95
AUC (MDAMB468, breast, NS, 168 hours): 0.6972
AUC (MESSA cell line): 0.4933
Emax (MESSA cell line): 24.22
AUC (MEWO, skin, NS, 168 hours): 0.7237
AUC (MIAPACA2 cell line): 0.3322
Emax (MIAPACA2 cell line): 9.711
AUC (MKN1 cell line): 0.3945
AUC (MKN45 cell line): 0.4427
Emax (MKN45 cell line): 19.77
AUC (MOLT4 cell line): 0.1376
Emax (MOLT4 cell line): 0.6048
AUC (MPP89 cell line): 0.6384
IC50 (MPP89 cell line): > 10000 nM
AUC (MV411 cell line): 0.2163
AUC (NAMALWA cell line): 0.2431
EC50 (NAMALWA cell line): 3.27 nM
IC50 (NAMALWA cell line): 3.21 nM
IC50 (NCI-H1435, 168 h, NCIH1435, lung, non-small cell carcinoma, 168 hours): > 10000 nM
EC50 (NCI-H2023, NCIH2023 cell line): 2.84 nM
IC50 (NCI-H2023, NCIH2023 cell line): 3.03 nM
EC50 (NCI-H2172, NCIH2172 cell line): ≥ 10000 nM
IC50 (NCI-H2172, NCIH2172 cell line): 133 nM
